In ChEMBL document CHEMBL1129391, “Potent and selective thrombin inhibitors incorporating the constrained arginine mimic l-3-piperidyl(N-guanidino)alanine at P1” (J Med Chem, 1996):

Experiments:
[1] = target: Coagulation factor X (Homo sapiens, UniProt P00742); experiment: Compound was evaluated for inhibition of amidolytic activity for chromogenic substrate Coagulation factor X
[2] = target: Prothrombin (Homo sapiens, UniProt P00734); experiment: Compound was evaluated for inhibition of amidolytic activity for chromogenic substrate thrombin […].
[3] = target: T1, Trypsin II (Bos taurus, UniProt Q29463); experiment: Compound was evaluated for inhibition of amidolytic activity for chromogenic substrate trypsin
T1 sequence (Q29463 whole entry): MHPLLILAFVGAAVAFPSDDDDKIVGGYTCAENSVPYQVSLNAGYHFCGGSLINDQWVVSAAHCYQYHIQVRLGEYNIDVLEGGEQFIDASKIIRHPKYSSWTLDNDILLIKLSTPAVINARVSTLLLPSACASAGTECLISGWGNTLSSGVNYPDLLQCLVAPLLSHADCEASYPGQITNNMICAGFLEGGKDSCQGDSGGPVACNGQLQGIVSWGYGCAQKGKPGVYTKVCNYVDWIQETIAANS

Sequence of Coagulation factor X (P00742 41-179 limits assumed): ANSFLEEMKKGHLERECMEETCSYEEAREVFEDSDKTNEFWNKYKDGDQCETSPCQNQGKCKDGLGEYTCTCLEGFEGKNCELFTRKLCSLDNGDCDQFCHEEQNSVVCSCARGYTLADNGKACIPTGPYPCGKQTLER
Sequence of Coagulation factor X (P00742 235-488 limits assumed): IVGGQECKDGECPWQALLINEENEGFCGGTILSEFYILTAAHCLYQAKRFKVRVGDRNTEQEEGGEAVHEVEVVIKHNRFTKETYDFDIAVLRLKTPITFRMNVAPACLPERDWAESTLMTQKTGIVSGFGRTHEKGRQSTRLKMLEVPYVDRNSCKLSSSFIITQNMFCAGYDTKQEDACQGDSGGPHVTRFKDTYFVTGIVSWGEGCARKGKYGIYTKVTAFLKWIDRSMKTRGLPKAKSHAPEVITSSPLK

| SMILES | IC50 [1] [nM] | IC50 [2] [nM] | IC50 [3] [nM] |
| --- | --- | --- | --- |
| [H]/N=C(\N)N1CCC[C@@H](C[C@@H](C=O)NC(=O)CN2CCC[C@H](NS(=O)(=O)Cc3ccccc3)C2=O)C1 | > 25000 | 0.67 | 68400 |
| CCCC(CCC)C(=O)N[C@@H](CC(=O)OC)C(=O)N1CCC[C@H]1C(=O)N[C@H](C=O)CCCNC(=N)N | 301 |  | 1.2 |
| CCCC(CCC)C(=O)N[C@@H](CC(=O)OC)C(=O)N1CCC[C@H]1C(=O)N[C@H](C=O)CC1CCCN(C(=N)N)C1 (stereo in doubt; 4b) | > 2500 |  | 69.7 |
| N=C(N)N1CCC[C@H](C[C@@H](C=O)NC(=O)CN2CCC[C@H](NS(=O)(=O)Cc3ccccc3)C2=O)C1 | > 25000 | 28.8 | 60700 |
| N=C(N)N1CCCC(C[C@@H](C=O)NC(=O)CN2CCCC[C@H](NS(=O)(=O)Cc3ccccc3)C2=O)C1 (stereo in doubt; 6b) | > 25000 |  | 45800 |
| N=C(N)NCCC[C@@H](C=O)NC(=O)CN1CCC[C@H](NS(=O)(=O)Cc2ccccc2)C1=O | > 2500 | 12.4 | 1550 |
| N=C(N)N1CCCC(C[C@@H](C=O)NC(=O)CN2CCCC[C@H](NS(=O)(=O)Cc3ccccc3)C2=O)C1 (stereo in doubt; 6a) | > 2500 |  | 15100 |
| N=C(N)NCCC[C@@H](C=O)NC(=O)CN1CCCC[C@H](NS(=O)(=O)Cc2ccccc2)C1=O | 20.6 | 0.71 | 329 |
| CCCC(CCC)C(=O)N[C@@H](CC(=O)OC)C(=O)N1CCC[C@H]1C(=O)N[C@H](C=O)CC1CCCN(C(=N)N)C1 (stereo in doubt; 4a) | > 2500 |  | 113 |
